Experimental data: patent publication US10344052B2, “Targeting peptides and uses thereof” (Health Research, Inc., priority 2013, dated 2019)

System: ADT-perturbed human prostate cancer vasculature
Assay: In vivo selection of Ph.D.-12 phage display library against ADT-perturbed human prostate cancer xenografts, NextGen sequencing of recovered phage
Conditions: for # clones recovered: third round of in vivo selection, data of the two tumor specimens combined; for Recovery of Candidate Peptides Percent of Total Phage After 3 Cycles of Selection: xenograft in SCID mouse, 72 h after ADT
Description: Male SCID mice were castrated and pre-implanted with silastic tubing to provide sustained-release of testosterone to maintain human serum levels testosterone in the host mouse and to facilitate castration/androgen deprivation (ADT). Human prostate tumor tissue was prepared for transplantation by cutting the radical prostatectomy surgical remnant in ViaSpan into approximately 1.0 mm^3 to 2.0 mm^3 wedges. Tissue was transplanted, into individual incisions in the skin; four pieces of tissue were transplanted on each flank of mice anesthetized with isoflurane. Each piece of tumor tissue was dipped into Matrigel, inserted into an incision, and the incisions closed with tissue glue.
Anastamosis of the human vasculature of the prostate cancer xenografts to the host mouse vascular system occurred between Days 5 and 6 after tissue transplantation, and the vasculature had stabilized by Day 21 after transplantation.
Seventy-two hours after initiation of ADT, the host mouse was anesthetized with acepromazine/ketamine/xylazine and the peptide-phage display library introduced systemically by intra-cardiac injection into the right ventricle. The Ph.D.-12 phage library (NEB, Ipswich, Mass.) was injected at a concentration of 1.2×10^11 pfu in 100 μL. The phage library was allowed to circulate through the mouse host for 15 minutes. At the conclusion of the incubation the vascular volume was replaced by perfusion (40 ml) with PBS to remove unbound phage. […] The xenografts were excised and placed into an eppendorf tube containing 0.5 mL phage elution buffer (0.2 M Glycine-HCl pH 2.2, 0.5% BSA) and the xenografts homogenized with a rotor/stator homogenizer on ice. The phage containing homogenate was cleared by centrifugation at 20,800×G for 5 minutes, and neutralization buffer (Tris-HCl pH 9.1) added to the supernatant. The concentration of phage in the eluate was established by titration: serial 10-fold dilutions of the neutralized phage eluate (10 μl) were added to 200 μL of a mid-log culture of host bacteria (ER2738), the cells/phage mixed with 3.5 mL of molten top agar (48° C.), and plated onto LB. Plates were incubated at 37° C. overnight and blue plaques were counted for determination of pfu. Based on the pfu, an aliquot of the neutralized phage eluate that contained a standardized number of phage was amplified by addition to a 20 mL flask of LB/Tet inoculated with 200 μL of an overnight culture of ER2738, and the culture incubated for 4 hours. The culture was cleared of bacteria by centrifugation, the supernatant treated with ⅙ volume of PEG/NaCl (20% (w/v) PEG-8000, 2.5M NaCl), refrigerated overnight for phage precipitation, and phage recovered by centrifugation. The final phage pellet was resuspended in […] of TBS and titered (as described above). For all in vivo selections the input phage held constant at 1.2×10^11 phage per mouse.
Following the third sequential round of in vivo selection against tissue from a single patient, the recovered phage population was titered, diluted and plated at a concentration to yield approximately 100 plaques per plate. Individual plaques were picked and amplified for conventional DNA sequencing to verify that a diversity of peptides was selected. Subsequently, the region of the phage genome that contained the random peptides embedded in the pIII protein were amplified by PCR from all selected phage libraries in preparation for Next Gen Sequencing. PCR primers were designed that flanked the hyper-variable region of the phage genome, the region containing the peptide inserted into the pIII protein: (FWD:—3gIII: 5′-CCTTTCTATTCTCACTCTGCT-3′ (SEQ ID NO:98); REV:—155gIII: 5′-CCGTAACACTGAGTTTCGTCA-3′ (SEQ ID NO:99)). The amplified segments were the templates for the NextGen DNA sequencing process. Templates were quantified and concentrations normalized and underwent 454 Next Gen sequencing using 500 ng of amplified template DNA at a concentration of […]. […]

Sequence	# clones recovered	also measured
KPPQNTSCAFIF	2	–
SPHWQPNAILL	2	–
KPPQNTSAPLSS	3	–
TMGFTAPRFPHM	2	–
KPPQNTSAPYLP	659	–
TLQRTHFPPAFP	3	–
TLQRIHFPPAFS	5	–
TMGFTAPRFPLL	6	–
TLQRTHFPPAFW	3	–
LLADTTHHRWT	–	Recovery of Candidate Peptides Percent of Total Phage After 3 Cycles of Selection (CaP Tissue Specimen 1): 0.1%; Recovery of Candidate Peptides Percent of Total Phage After 3 Cycles of Selection (CaP Tissue Specimen 2): 0.1%
TMGFTAPRFPHC	2	–
TLQRTHFRRRFG	95	–
TMGFTAPRFP	9	–
TLQRTHFPSGV	19	–
SPHWQPNAI	–	Recovery of Candidate Peptides Percent of Total Phage After 3 Cycles of Selection (CaP Tissue Specimen 1): 3.29%; Recovery of Candidate Peptides Percent of Total Phage After 3 Cycles of Selection (CaP Tissue Specimen 2): 1.53%
TMGFTAPRRGAV	2	–
DQHGFMHIFDL	–	Recovery of Candidate Peptides Percent of Total Phage After 3 Cycles of Selection (CaP Tissue Specimen 1): 0.4%; Recovery of Candidate Peptides Percent of Total Phage After 3 Cycles of Selection (CaP Tissue Specimen 2): 0.1%
AETVESCLAKSH	–	Recovery of Candidate Peptides Percent of Total Phage After 3 Cycles of Selection (CaP Tissue Specimen 1): 0.99%; Recovery of Candidate Peptides Percent of Total Phage After 3 Cycles of Selection (CaP Tissue Specimen 2): 0.5%
TLQRTHFPSGVF	32	–
TLQRTHFPPA	30	–
TLQRTHFSPAFS	4	–
KPPQNTSAPY	2	–

Sequence	# clones recovered	also measured
TLQRTHFPPAFF	22	–
TLQRTHFRPAF	6	–
TMGFTAPRFPHY	–	Recovery of Candidate Peptides Percent of Total Phage After 3 Cycles of Selection (CaP Tissue Specimen 1): 26.5%; Recovery of Candidate Peptides Percent of Total Phage After 3 Cycles of Selection (CaP Tissue Specimen 2): 4.78%
TLQRTHFPRRFR	6	–
TMGFTAPRFPHH	3	–
TLQRTHFPSG	47	–
TLQRTHFRPAFR	21	–
KPPQTNTSAPYLP	–	Recovery of Candidate Peptides Percent of Total Phage After 3 Cycles of Selection (CaP Tissue Specimen 1): 27.3%; Recovery of Candidate Peptides Percent of Total Phage After 3 Cycles of Selection (CaP Tissue Specimen 2): 5.48%
TMGFTAPRFQHY	2	–
TMGFTAPRFPHL	4	–
TMGFTAPWFPHY	2	–
TMGFTAPRFPAL	2	–
TLQRTHFPPAFR	126	–
TLQRTHFPPARR	3	–
TMGFTAPRFRIM	5	–
TLQRTHFPRLFG	3	–
TLQRTHFPRRFG	3	–
TLQRTHFPPVVF	19	–
TLQRTHFPPAFS	7988	Recovery of Candidate Peptides Percent of Total Phage After 3 Cycles of Selection (CaP Tissue Specimen 1): 9.58%; Recovery of Candidate Peptides Percent of Total Phage After 3 Cycles of Selection (CaP Tissue Specimen 2): 7.57%
TLQRTHFPSGVS	14	–
TLQRTLFSAGVF	9	–
SPHWQPNAILLM	17	–

Sequence	# clones recovered	also measured
TLQRTHFPLAFS	3	–
KPPQNTSAPYLR	2	–
TMGFTAPRFPHR	4	–
TMGLTHSRVRIE	2	–
TLQRTLFSAGRF	32	–
DPKFPQNSHLIT	–	Recovery of Candidate Peptides Percent of Total Phage After 3 Cycles of Selection (CaP Tissue Specimen 1): 0.63%; Recovery of Candidate Peptides Percent of Total Phage After 3 Cycles of Selection (CaP Tissue Specimen 2): 0.35%
TLQRTHFRRRF	5	–
TLQRTHFSVR	4	–
TMGFTAPRFPSV	2	–
TLQRTHFPPGVF	5	–
SPHWQPNAIL	2	–
HSAQPVKSKAWL	–	Recovery of Candidate Peptides Percent of Total Phage After 3 Cycles of Selection (CaP Tissue Specimen 1): 0.3%; Recovery of Candidate Peptides Percent of Total Phage After 3 Cycles of Selection (CaP Tissue Specimen 2): 0.2%
TLQRTLFPPVVS	14	–
GAMHLPWHMGT	–	Recovery of Candidate Peptides Percent of Total Phage After 3 Cycles of Selection (CaP Tissue Specimen 1): 0.21%; Recovery of Candidate Peptides Percent of Total Phage After 3 Cycles of Selection (CaP Tissue Specimen 2): 46.3%
GAMHLPWHMGTL	–	recovery (in words): high recovery
TLQRTHFPPAAG	3	–
SPHWQPNAIFVN	36	–
TLQRTHFSAGVF	116	–
TMGFTAPRFPHQ	8	–
TXGFTAPRFPHY	47	–
TLQRTHFPSA	6	–
TLQRTHFPPVVS	8	–
